From patent publication US20090314217A1, “APPARATUS AND METHOD FOR TREATING NON-HUMAN MAMMALS” (Under The Boardwalk Properties 8 (Proprietary) Limited, priority 2006, published 2009)

How the values were obtained:
[1] = Blood tests on the horses on the days of the race (Table 1); type: in vivo, horse
Experimental: The apparatus 10 was used in a confidential trial to treat five horses taking part in an endurance race. The five horses were called Moniq, Shamon, Pauli, Viola and Ophelia. During treatment, the average temperature inside the enclosure 22 was between 42° C. and 45° C. and an oxygen flow rate of 1 l/min was supplied to the ozonator 52. During treatment, the average heart-rate for the non-accustomed horses was 42 beats per minute. The superficial skin temperature measured on the neck and the point of the shoulder of the horses was 39° C. in each case.
Table 1 provides information on the blood tests conducted on the five horses, on the days of the race as indicated.

[2] = Blood oxygen tests immediately before and after transdermal ozone therapy (Table 2); type: in vivo, horse; settings: for PO2 / SO2: post-treat (immediately after therapy); for K+ blood concentration / Na+ blood concentration: post-treat; for K+ blood concentration: normal range 5.3-3.0; for Na+ blood concentration: normal range 150.0-133.0
Experimental: Blood tests were also conducted for three horses to determine when transdermal ozone therapy should be provided. The horses were Shamon, Pauli and Sinbad. The blood tests were conducted immediately before transdermal ozone therapy and immediately thereafter. For the horse Shamon, blood tests were also conducted 12 hours and 24 hours after transdermal ozone therapy.

[3] = horse Pauli, race day 2, pre-treated before race
[4] = horse Shamon, race day 3, treated day 2
[5] = horse Viola, race day 2, treated days 1 and 2, day 1 value 40

For O=[O+][O-] [ozone], the PCT [1, 3] was 0.05%, the PDW [1, 3] was 33.8 and the “PLT = platelets” value [1, 3] was 1.1e+11 L⁻¹. For the same compound, the “RBC = red blood cell count” value [1, 3] was 1.05e+13 L⁻¹, the RDWc [1, 3] was 21.9% and the “TBIL = total biliruben” value [1, 3] was 96 µmol/L. For the same compound, the “TP = total protein” value [1, 3] was 79 gram/liter, the “WBC = white blood cell count” value [1, 3] was 1.98e+10 L⁻¹ and the “ALB = albumin” value [1, 4] was 31 gram/liter. The “AST = aspertate amino transferase” value [1, 4] was 722 Units/liter, the “BUN = blood urea nitrogen” value [1, 4] was 9 mmol/L and the “CA++ = calcium” value [1, 4] was 2.76 mmol/L. For the same compound, the “CK = creatine kinase” value [1, 4] was 1450 International Units/liter, the “CRE = creatinine” value [1, 4] was 122 µmol/L and the “GGT = gamma glutamiel transferase” value [1, 4] was 27 Units/liter. For the same compound, the “GLOB = globulin” value [1, 4] was 35 gram/liter, the “GLU = glucose” value [1, 4] was 6.3 mmol/L and the “GR % = granulocytes percentage” value [1, 4] was 78.4%. For the same compound, the “GRA = granulocytes” value [1, 4] was 1.24e+10 L⁻¹, the “HB = hemoglobin” value [1, 4] was 11.9 d/deciliter and the “K+ = potassium” value [1, 4] was 3.8 mmol/L. The “LY % = lymphocytes percentage” value [1, 4] was 16.4%, the “LYM = lymphocytes” value [1, 4] was 2.59e+09 L⁻¹ and the “MCH = mean corpuscular hemoglobin” value [1, 4] was 15.8 pg. The “MCHC = mean corpuscular hemoglobin concentration” value [1, 4] was 39.3 gram/deciliter, the “MCV = mean corpuscular volume” value [1, 4] was 40 femtoliter and the “MON % = monocytes percentage” value [1, 4] was 5.2%. For the same compound, the “MON = monocytes” value [1, 4] was 8.2e+08 L⁻¹, the “Na+ = sodium” value [1, 4] was 138 mmol/L and the PCT [1, 4] was 0.06%. For the same compound, the PDW [1, 4] was 35.8, the “PLT = platelets” value [1, 4] was 1.02e+11 L⁻¹ and the “RBC = red blood cell count” value [1, 4] was 7.56e+12 L⁻¹. The RDWc [1, 4] was 22.1%, the “TBIL = total biliruben” value [1, 4] was 52 µmol/L and the “TP = total protein” value [1, 4] was 66 gram/liter. For the same compound, the “WBC = white blood cell count” value [1, 4] was 1.58e+10 L⁻¹, the PCT ([1]; horse Viola, race day 2, treated days 1 and 2, day 1 value 0.09) was 0.05% and the “MON = monocytes” value ([1]; horse Viola, race day 2, treated days 1 and 2, day 1 value 0.64) was 5.6e+08 L⁻¹. For the same compound, the “LYM = lymphocytes” value ([1]; horse Viola, race day 2, treated days 1 and 2, day 1 value 1.34) was 2.14e+09 L⁻¹, the “GLU = glucose” value ([1]; horse Viola, race day 2, treated days 1 and 2, day 1 value 2.9) was 5.7 mmol/L and the “CA++ = calcium” value ([1]; horse Viola, race day 2, treated days 1 and 2, day 1 value 2.97) was 2.88 mmol/L. For the same compound, the “MON % = monocytes percentage” value ([1]; horse Viola, race day 2, treated days 1 and 2, day 1 value 4.3) was 4.3%, the “K+ = potassium” value ([1]; horse Viola, race day 2, treated days 1 and 2, day 1 value 5.1) was 3.7 mmol/L and the “LY % = lymphocytes percentage” value ([1]; horse Viola, race day 2, treated days 1 and 2, day 1 value 8.9) was 16.3%. The “BUN = blood urea nitrogen” value ([1]; horse Viola, race day 2, treated days 1 and 2, day 1 value 9) was 9 mmol/L, the “RBC = red blood cell count” value ([1]; horse Viola, race day 2, treated days 1 and 2, day 1 value 9.73) was 9.03e+12 L⁻¹ and the “GRA = granulocytes” value ([1]; horse Viola, race day 2, treated days 1 and 2, day 1 value 13.0) was 1.04e+10 L⁻¹. The “WBC = white blood cell count” value ([1]; horse Viola, race day 2, treated days 1 and 2, day 1 value 15.0) was 1.31e+10 L⁻¹, the “HB = hemoglobin” value ([1]; horse Viola, race day 2, treated days 1 and 2, day 1 value 15.2) was 14.4 d/deciliter and the “MCH = mean corpuscular hemoglobin” value ([1]; horse Viola, race day 2, treated days 1 and 2, day 1 value 15.7) was 16.0 pg. The “GGT = gamma glutamiel transferase” value ([1]; horse Viola, race day 2, treated days 1 and 2, day 1 value 17) was 18 Units/liter, the RDWc ([1]; horse Viola, race day 2, treated days 1 and 2, day 1 value 22.4) was 22.6% and the “ALB = albumin” value ([1]; horse Viola, race day 2, treated days 1 and 2, day 1 value 34) was 30 gram/liter. For the same compound, the PDW ([1]; horse Viola, race day 2, treated days 1 and 2, day 1 value 35.8) was 31.0, the “MCHC = mean corpuscular hemoglobin concentration” value ([1]; horse Viola, race day 2, treated days 1 and 2, day 1 value 39.4) was 39.0 gram/deciliter and the “GLOB = globulin” value [1, 5] was 39 gram/liter. The “MCV = mean corpuscular volume” value [1, 5] was 41 femtoliter, the “TBIL = total biliruben” value ([1]; horse Viola, race day 2, treated days 1 and 2, day 1 value 41) was 48 µmol/L and the “TP = total protein” value ([1]; horse Viola, race day 2, treated days 1 and 2, day 1 value 75) was 69 gram/liter. For the same compound, the “GR % = granulocytes percentage” value ([1]; horse Viola, race day 2, treated days 1 and 2, day 1 value 86.8) was 79.4%, the “CRE = creatinine” value ([1]; horse Viola, race day 2, treated days 1 and 2, day 1 value 131) was 99 µmol/L and the “Na+ = sodium” value ([1]; horse Viola, race day 2, treated days 1 and 2, day 1 value 144) was 138 mmol/L. The “PLT = platelets” value ([1]; horse Viola, race day 2, treated days 1 and 2, day 1 value 146) was 9.9e+10 L⁻¹, the “CK = creatine kinase” value ([1]; horse Viola, race day 2, treated days 1 and 2, day 1 value 5896) was 1599 International Units/liter and the “AST = aspertate amino transferase” value ([1]; horse Viola, race day 2, treated days 1 and 2, day 1 value >2000) was 1814 Units/liter. For the same compound, the PO2 ([2]; horse Pauli, pre-treat 39.30) was 49.20 mmHg, the SO2 ([2]; horse Pauli, pre-treat 80.30) was 87.10% and the “K+ blood concentration” value ([2]; horse Pauli, pre-treat 3.73) was 4.37 mmol/L. The “Na+ blood concentration” value ([2]; horse Pauli, pre-treat 143.00) was 144.30 mmol/L, the PO2 ([2]; horse Shamon, pre-treat 40.00) was 52.70 mmHg and the SO2 ([2]; horse Shamon, pre-treat 74.60) was 90.50%. The “K+ blood concentration” value ([2]; horse Shamon, pre-treat 3.41) was 4.09 mmol/L, the “Na+ blood concentration” value ([2]; horse Shamon, pre-treat 136.00) was 148.30 mmol/L and the PO2 ([2]; horse Sinbad, pre-treat 35.90) was 48.00 mmHg. The SO2 ([2]; horse Sinbad, pre-treat 70.60) was 86.40%, the “K+ blood concentration” value ([2]; horse Sinbad, pre-treat 3.49) was 3.04 mmol/L and the “Na+ blood concentration” value ([2]; horse Sinbad, pre-treat 147.40) was 150.20 mmol/L. The “dehydration effect of transdermal ozone therapy” value ([2]; horses Shamon, Pauli, Sinbad) was “no dehydration effect” and the “Na+, K+ and Cl- blood concentrations versus normal ranges” value ([2]; horses Shamon, Pauli, Sinbad, before and after therapy) was “remained within normal ranges”.
